Test results taken from PubChem BioAssay (NCI).
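Interpolation was linear, between the two tested concentrations surrounding the appropriate level; five concentrations were tested over 48 hours in 96-well plates. GI50 is the concentration that inhibits growth by half. Definition used: TGI = concentration required for complete inhibition of growth.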

Assays:
Assay in all cases: growth of human tumour cells (NCI), 48 h
ACHN renal = test system: ACHN renal
NCI-H23 lung = test system: NCI-H23 lung
A498 renal = test system: A498 renal
HL-60(TB) leukemia = test system: HL-60(TB) leukemia
HOP-92 NSCLC = test system: HOP-92 NSCLC
SK-OV-3 ovarian = test system: SK-OV-3 ovarian
IGROV1 ovarian = test system: IGROV1 ovarian
CCRF-CEM leukemia = test system: CCRF-CEM leukemia
HOP-62 NSCLC = test system: HOP-62 NSCLC
SF-268 CNS = test system: SF-268 CNS

| Compound | GI50 (ACHN renal) [µM] | TGI (ACHN renal) [µM] | GI50 (NCI-H23 lung) [µM] | TGI (NCI-H23 lung) [µM] | GI50 (A498 renal) [µM] | TGI (A498 renal) [µM] | GI50 (HL-60(TB) leukemia) [µM] | TGI (HL-60(TB) leukemia) [µM] | GI50 (HOP-92 NSCLC) [µM] | TGI (HOP-92 NSCLC) [µM] | GI50 (SK-OV-3 ovarian) [µM] | TGI (SK-OV-3 ovarian) [µM] | TGI (IGROV1 ovarian) [µM] | TGI (CCRF-CEM leukemia) [µM] | TGI (HOP-62 NSCLC) [µM] | TGI (SF-268 CNS) [µM] | GI50 (HOP-62 NSCLC) [µM] | GI50 (IGROV1 ovarian) [µM] | GI50 (SF-268 CNS) [µM] | GI50 (CCRF-CEM leukemia) [µM] |
| --- | --- | --- | --- | --- | --- | --- | --- | --- | --- | --- | --- | --- | --- | --- | --- | --- | --- | --- | --- | --- |
| CCCCCCCCCCCCCCCc1ccc(C(=O)C[n+]2ccccc2)cc1 | 1.01 | 2.22 | 0.502 | 1.79 | 1.1 | 8.33 | 0.531 | 2.52 | 0.295 | 3.93 | 1.71 | 3.34 |  |  |  |  |  |  |  |  |
| CCN(CC)CCSc1nc2c([N+](=O)[O-])cccc2[nH]1 |  |  |  | > 100 |  |  |  | > 100 |  | > 100 |  | > 100 | > 100 | > 100 |  |  |  |  |  |  |
| COC(=O)c1c(OC(C)=O)ccc2c1c1c(n2Cc2ccccc2)C(=O)c2ccccc2C1=O |  | > 100 |  | 42.1 |  | 43.6 |  | 57.2 |  | 39.8 |  | 66.9 | 50.4 | 68.6 | 44.5 | 78.1 |  |  |  |  |
| O=C1Nc2ccccc2/C1=C\c1c(Cl)[nH]c2ccccc12 |  | 13.1 |  | 16.1 |  | 4.78 |  | 0.728 |  | 3.6 |  | 1.2 | 1.35 | 3.44 | 7.51 | 7.72 |  |  |  |  |
| COc1ccc([N+](=O)[O-])cc1[I+]c1cc([N+](=O)[O-])ccc1OC |  | > 100 |  | > 100 |  | > 100 |  | 97.6 |  |  |  | 82.3 | > 100 | > 100 | > 100 | > 100 |  |  |  |  |
| N/C(=N/O)c1cn(C2OC(CO)C(O)C2O)c2ncnc(NO)c12 (stereo unspecified) |  | 4.72 |  | 2.29 |  | 3.01 |  | 0.76 |  | > 45.4 |  |  | > 51 |  | > 100 | > 100 |  |  |  |  |
| N=C(N)c1ccc(-c2ccc(-c3ccccc3)o2)cc1 | 1.67 | 3.26 | 3.37 | 14.8 | 2.85 | 9.46 | 1.93 | 4.42 | 1.95 | 4.14 | 2.89 | 10.2 | 4.5 | 5.03 | 5.13 | 4.28 | 1.98 | 2 | 1.96 | 2.13 |
| CC[n+]1c(/C=C/c2ccc(N(CCCl)CCCl)cc2)ccc2cc(Br)ccc21 | 1060 |  | 172 |  |  | 6900 | 86.2 |  | 92.7 |  |  | 9.09 | 18.4 |  |  |  | 954 |  |  | 304 |
| COc1cccc(/C=N/[N-]C(N)=O)c1[O-].[OH3+].[Zn+2] |  | > 100 |  | > 100 |  | > 100 |  |  |  | > 100 |  | > 100 | > 100 | > 100 | > 100 | > 100 |  |  |  |  |
| O=C(Nc1ccc(-n2cc(-c3ccncc3)c(-c3ccc(O)c(Cl)c3)n2)cc1)c1ccc(Cl)c(Cl)c1 | 1.34 | > 32.5 | 2.18 | > 32.5 | > 32.5 | > 32.5 | 1.39 | > 32.5 | 0.819 | 20.5 |  |  | > 32.5 | > 32.5 | > 32.5 | > 32.5 | 2 | > 32.5 | > 32.5 | 1.01 |
| Cc1ccc(CCCC(=O)O)cc1C |  | > 100 |  | > 100 |  |  |  | > 100 |  | > 100 |  |  | > 100 | > 100 | > 100 | > 100 |  |  |  |  |
| CNC1=C(C)C(=O)C2=C(C1=O)C(COC(N)=O)C1(OC)C3NC3CN21 (stereo unspecified) |  |  |  |  |  | 2.35 |  | > 100 |  |  |  | 36.5 | 91.2 | > 100 | 2.38 | 12.9 |  |  |  |  |
| CC(=O)NC1C(OCc2ccccc2)OC(CO)C(O)C1OCC(=O)NC(C)C(=O)NC(CCC(=O)Nc1ccc2c(c1)CN1C(=O)c3ccccc3C1=N2)C(N)=O (stereo unspecified) |  | > 100 |  | > 100 |  | > 100 |  | > 100 |  | > 100 |  | > 100 | > 100 | > 100 | > 100 | > 100 |  |  |  |  |
